Assay results: ChEMBL document CHEMBL5728270, “Immunomodulator compounds” (2021)

Experiment: Enzyme-Linked Immunosorbent Assay ELISA: 96 Well plates were coated with […] of human PD-L1 (obtained from R&D) in PBS overnight at 4° C. The wells were then blocked with 2% BSA in PBS (W/V) with 0.05% TWEEN-20 for 1 hour at 37° C. The plates were washed 3 times with PBS/0.05% TWEEN-20 and the compounds were serial diluted (1:5) in dilution medium and added to the ELISA plates. Human PD-1 and biotin 0.3 μg/mL (ACRO Biosystems) were added and incubated for 1 hour at 37° C. then washed 3 times with PBS/0.05% TWEEN-20. A second block was performed with 2% BSA in PBS (W/V)/0.05% TWEEN-20 for 10 min at 37° C. and was washed 3 times with PBS/0.05% TWEEN-20. Streptavidin-HRP was added for 1 hour at 37° C. then washed 3 times with PBS/0.05% TWEEN-20. TMB substrate was added and reacted for 20 min at 37° C. A stop solution (2 N aqueous H2SO4) was added. The absorbance was read at 450 nm using a micro-plate spectrophotometer.

Structure (SMILES)	IC50
C[C@@](CO)(NCc1cc(Cl)c(O[C@H]2CCc3c(-c4cccc(OCCCN5CCC(O)CC5)c4Cl)cccc32)cc1OCc1cncc(C#N)c1)C(=O)O	< 5 nM
Cc1c(OCCCN2CCC(O)CC2)cccc1-c1cccc2c1CC[C@@H]2Oc1cc(OCc2cc(C#N)cc(C#N)c2)c(CN[C@@](C)(CO)C(=O)O)cc1Cl	< 5 nM
Cc1c(OCCCN2CCC(O)CC2)cccc1-c1cccc2c1CC[C@@H]2Oc1cc(OCc2cncc(C#N)c2)c(CN[C@H](C(=O)O)[C@@H](C)O)cc1Cl	< 5 nM
N#Cc1cncc(COc2cc(O[C@H]3CCc4c(-c5cccc(OCCCN6CCC(F)CC6)c5Cl)cccc43)c(Cl)cc2CN[C@H]2CCOC[C@@H]2O)c1	< 5 nM
